Measured values as given in PubChem BioAssay (NCI).
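Method: 48-hour compound exposure of cells in 96-well plates, five concentrations, linear interpolation of endpoints. GI50: concentration for 50% inhibition of growth. Definition used: TGI = concentration required for complete inhibition of growth.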

Experiments:
Assay in all cases: DTP human tumour cell line panel, 48 h
[1] = test system: RPMI-8226 leukemia
[2] = test system: PC-3 prostate
[3] = test system: SK-MEL-2 melanoma
[4] = test system: KM12 colon
[5] = test system: DU-145 prostate
[6] = test system: MOLT-4 leukemia
[7] = test system: SW-620 colon
[8] = test system: IGROV1 ovarian
[9] = test system: NCI-H226 lung
[10] = test system: SK-OV-3 ovarian
[11] = test system: HCT-15 colon
[12] = test system: M14 melanoma
[13] = test system: MDA-MB-231 breast
[14] = test system: SF-268 CNS
[15] = test system: SNB-19 CNS
[16] = test system: OVCAR-8 ovarian
[17] = test system: MCF7 breast
[18] = test system: MDA-MB-435
[19] = test system: OVCAR-4 ovarian
[20] = test system: RXF 393 renal
[21] = test system: NCI/ADR-RES ovarian
[22] = test system: SK-MEL-5 melanoma
[23] = test system: OVCAR-5 ovarian
[24] = test system: OVCAR-3 ovarian
[25] = test system: COLO 205 colon
[26] = test system: SK-MEL-28 melanoma
[27] = test system: SNB-75 CNS
[28] = test system: HL-60(TB) leukemia
[29] = test system: UACC-62 melanoma
[30] = test system: HS 578T breast
[31] = test system: SF-295 CNS
[32] = test system: SN12C renal
[33] = test system: U251 CNS
[34] = test system: BT-549 breast
[35] = test system: HT29 colon
[36] = test system: NCI-H23 lung
[37] = test system: A498 renal
[38] = test system: A549 NSCLC
[39] = test system: ACHN renal
[40] = test system: LOX IMVI melanoma
[41] = test system: UACC-257 melanoma
[42] = test system: K-562 leukemia
[43] = test system: UO-31 renal
[44] = test system: NCI-H460 lung
[45] = test system: HCC-2998 colon
[46] = test system: CAKI-1 renal
[47] = test system: TK-10 renal
[48] = test system: HOP-62 NSCLC
[49] = test system: 786-0 renal
[50] = test system: NCI-H522 lung
[51] = test system: SF-539 CNS
[52] = test system: MALME-3M melanoma
[53] = test system: T-47D breast
[54] = test system: HOP-92 NSCLC
[55] = test system: SR leukemia
[56] = test system: CCRF-CEM leukemia
[57] = test system: HCT-116 colon

Cc1cc(N(CCCl)CCCl)ccc1C=Nc1ccc2ccccc2c1
GI50 [1]: 29.3 µM
TGI [1]: > 100 µM
GI50 [2]: 17 µM
TGI [2]: > 100 µM
GI50 [3]: 40 µM
TGI [3]: 98 µM
GI50 [4]: 66.8 µM
TGI [4]: > 100 µM
GI50 [5]: 7.71 µM
TGI [5]: > 100 µM
GI50 [6]: 4.52 µM
TGI [6]: > 100 µM
GI50 [7]: 41.9 µM
TGI [7]: > 100 µM
GI50 [8]: 28.5 µM
TGI [8]: > 100 µM
GI50 [9]: 0.297 µM
TGI [9]: 1.82 µM
GI50 [10]: 19.3 µM
TGI [10]: > 100 µM
GI50 [11]: 27.6 µM
TGI [11]: > 100 µM
GI50 [12]: 31.7 µM
TGI [12]: > 100 µM
GI50 [13]: 34.5 µM
TGI [13]: > 100 µM
GI50 [14]: 15.8 µM
TGI [14]: > 100 µM
GI50 [15]: 51.2 µM
TGI [15]: > 100 µM
GI50 [16]: 24.3 µM
TGI [16]: > 100 µM
GI50 [17]: 2.36 µM
TGI [17]: > 100 µM
GI50 [18]: 53.3 µM
TGI [18]: > 100 µM
GI50 [19]: 15.5 µM
TGI [19]: > 100 µM
GI50 [20]: 13.4 µM
TGI [20]: > 96 µM
GI50 [21]: 9.62 µM
TGI [21]: > 100 µM
GI50 [22]: 6.8 µM
TGI [22]: 27.6 µM
GI50 [23]: 2.52 µM
TGI [23]: > 100 µM
GI50 [24]: 14.8 µM
TGI [24]: > 77 µM
GI50 [25]: 13.2 µM
TGI [25]: > 82.6 µM
GI50 [26]: > 100 µM
TGI [26]: > 100 µM
GI50 [27]: 2.52 µM
TGI [27]: > 89.7 µM
GI50 [28]: 8.6 µM
TGI [28]: > 68.6 µM
GI50 [29]: 2.45 µM
TGI [29]: 28.3 µM
GI50 [30]: 34.3 µM
TGI [30]: > 100 µM
GI50 [31]: 2.08 µM
TGI [31]: > 55.8 µM
GI50 [32]: 12.4 µM
TGI [32]: > 100 µM
GI50 [33]: 9.98 µM
TGI [33]: > 100 µM
GI50 [34]: 19.8 µM
TGI [34]: > 100 µM
GI50 [35]: > 85.3 µM
TGI [35]: > 100 µM
GI50 [36]: 6.12 µM
TGI [36]: > 100 µM
GI50 [37]: 0.226 µM
TGI [37]: 1.13 µM
GI50 [38]: 14.2 µM
TGI [38]: > 100 µM
GI50 [39]: 4.51 µM
TGI [39]: > 100 µM
GI50 [40]: 22.1 µM
TGI [40]: > 100 µM
GI50 [41]: 3.17 µM
TGI [41]: > 39.6 µM
GI50 [42]: 32.4 µM
TGI [42]: > 100 µM
GI50 [43]: 8.71 µM
TGI [43]: > 100 µM
GI50 [44]: 0.485 µM
TGI [44]: > 100 µM
GI50 [45]: 27.9 µM
TGI [45]: > 100 µM
GI50 [46]: 1.51 µM
TGI [46]: > 100 µM
GI50 [47]: 24.5 µM
TGI [47]: > 100 µM
GI50 [48]: 25.2 µM
TGI [48]: > 100 µM
GI50 [49]: 12.7 µM
TGI [49]: > 100 µM
GI50 [50]: 20.1 µM
TGI [50]: > 66.5 µM
GI50 [51]: 4.97 µM
TGI [51]: > 100 µM
GI50 [52]: 50.3 µM
TGI [52]: > 100 µM
GI50 [53]: 3.32 µM
TGI [53]: > 100 µM
GI50 [54]: 11.8 µM
TGI [54]: 61.1 µM
GI50 [55]: 4.08 µM
TGI [55]: > 100 µM
GI50 [56]: 4.85 µM
TGI [56]: > 100 µM
GI50 [57]: 38 µM
TGI [57]: > 100 µM

Cn1cc(C2=C(c3cn(C)c4ccccc34)C(=O)NC2=O)c2ccccc21
GI50 [1]: > 8.42 µM
TGI [1]: > 25 µM
GI50 [2]: 1.12 µM
TGI [2]: > 25 µM
GI50 [3]: 0.894 µM
TGI [3]: > 14 µM
GI50 [4]: 0.948 µM
TGI [4]: > 25 µM
GI50 [5]: 1.66 µM
TGI [5]: > 25 µM
GI50 [6]: 4.81 µM
TGI [6]: > 25 µM
GI50 [7]: 0.88 µM
TGI [7]: > 25 µM
GI50 [8]: 11.7 µM
TGI [8]: > 25 µM
GI50 [9]: 9.19 µM
TGI [9]: > 25 µM
GI50 [10]: 1.51 µM
TGI [10]: > 25 µM
GI50 [11]: 0.729 µM
TGI [11]: > 25 µM
GI50 [12]: 1.9 µM
TGI [12]: > 25 µM
GI50 [13]: > 23.5 µM
TGI [13]: > 25 µM
GI50 [14]: 3.1 µM
TGI [14]: > 25 µM
GI50 [15]: 11.5 µM
TGI [15]: > 25 µM
GI50 [16]: 2.96 µM
TGI [16]: > 25 µM
GI50 [17]: 0.72 µM
TGI [17]: > 25 µM
GI50 [18]: 0.095 µM
TGI [18]: > 6.61 µM
GI50 [19]: 5.01 µM
TGI [19]: > 25 µM
GI50 [20]: 0.825 µM
TGI [20]: 14.5 µM
GI50 [21]: 1.55 µM
TGI [21]: > 25 µM
GI50 [22]: 0.873 µM
TGI [22]: > 25 µM
GI50 [23]: > 25 µM
TGI [23]: > 25 µM
GI50 [24]: 0.646 µM
TGI [24]: > 6.67 µM
GI50 [25]: 1.1 µM
TGI [25]: > 25 µM
GI50 [26]: 3.71 µM
TGI [26]: > 25 µM
GI50 [27]: 0.306 µM
TGI [27]: 1.64 µM
GI50 [28]: 0.747 µM
TGI [28]: 5.1 µM
GI50 [29]: 2.24 µM
TGI [29]: > 25 µM
GI50 [30]: 0.7 µM
TGI [30]: > 19.9 µM
GI50 [31]: 0.903 µM
TGI [31]: > 25 µM
GI50 [32]: 3.47 µM
TGI [32]: > 25 µM
GI50 [33]: 1.26 µM
TGI [33]: > 25 µM
GI50 [34]: 2.33 µM
TGI [34]: > 25 µM
GI50 [35]: 0.775 µM
TGI [35]: > 25 µM
GI50 [36]: 2.3 µM
TGI [36]: > 25 µM
GI50 [37]: 0.457 µM
TGI [37]: > 25 µM
GI50 [38]: 1.97 µM
TGI [38]: > 25 µM
GI50 [39]: 2.25 µM
TGI [39]: > 25 µM
GI50 [40]: 1.8 µM
TGI [40]: > 25 µM
GI50 [41]: 4.17 µM
TGI [41]: > 25 µM
GI50 [42]: 0.235 µM
TGI [42]: > 25 µM
GI50 [43]: 2.49 µM
TGI [43]: > 25 µM
GI50 [44]: 1.12 µM
TGI [44]: > 25 µM
GI50 [45]: > 25 µM
TGI [45]: > 25 µM
GI50 [46]: 1.2 µM
TGI [46]: > 25 µM
GI50 [47]: 8.75 µM
TGI [47]: > 25 µM
GI50 [48]: 1.92 µM
TGI [48]: > 25 µM
GI50 [49]: 1.52 µM
TGI [49]: > 25 µM
GI50 [50]: 0.433 µM
TGI [50]: 2.52 µM
GI50 [51]: 0.738 µM
TGI [51]: 5.25 µM
GI50 [52]: 4.42 µM
TGI [52]: > 25 µM
GI50 [53]: 1.8 µM
TGI [53]: > 25 µM
GI50 [54]: 1.45 µM
TGI [54]: > 7.23 µM
GI50 [55]: 0.248 µM
TGI [55]: > 25 µM
GI50 [56]: 0.952 µM
TGI [56]: > 25 µM
GI50 [57]: 1.17 µM
TGI [57]: > 25 µM
